From ChEMBL document CHEMBL1649061, “Synthesis and pharmacological evaluation of N-(3-(1H-indol-4-yl)-5-(2-methoxyisonicotinoyl)phenyl)methanesulfonamide (LP-261), a potent antimitotic agent” (J Med Chem, 2011)
Calls of active or inactive are those of the source. The rule behind the calls is not given here.

Assays:
[1] = Oral bioavailability in Sprague-Dawley rat at 20 mg/kg; format: ADME, organism-based; conditions: in vivo
[2] = tested on: SW-620; assay: Cytotoxicity against human SW620 cells after 48 to 72 hrs by […] assay; format: functional, cell-based
[3] = tested on: A2780; assay: Cytotoxicity against human A2780 cells after 48 to 72 hrs by […] assay; format: functional, cell-based
[4] = tested on: HeLa; assay: Cytotoxicity against human HeLa cells after 48 to 72 hrs by […] assay; format: functional, cell-based
[5] = tested on: Jurkat; assay: Cell cycle arrest in human Jurkat cells assessed as accumulation at G2/M phase after 24 hrs using propidium iodide staining by FACS analysis
[6] = Cytotoxicity against human NCI-ADR-RES expressing MDR1 cells after 48 to 72 hrs by […] assay; format: functional, cell-based
[7] = Displacement of [3H]colchicine from tubulin at 30 uM
[8] = Inhibition of tubulin polymerization after 60 mins
[9] = tested on: U-266; assay: Cell cycle arrest in human U266 cells assessed as accumulation at G2/M phase after 24 hrs using propidium iodide staining by FACS analysis; format: functional, cell-based; conditions: U-266, 24 h
[10] = tested on: PC-3; assay: Cell cycle arrest in human PC3 cells assessed as accumulation at G2/M phase after 24 hrs using propidium iodide staining by FACS analysis; format: functional, cell-based; conditions: PC-3, 24 h
[11] = tested on: BXPC-3; assay: Cell cycle arrest in human BxPC3 cells assessed as accumulation at G2/M phase after 24 hrs using propidium iodide staining by FACS analysis; format: functional, cell-based; conditions: BXPC-3, 24 h
[12] = tested on: NCI-H522; assay: Cell cycle arrest in human NCI-H522 cells assessed as accumulation at G2/M phase after 24 hrs using propidium iodide staining by FACS analysis; format: functional, cell-based; conditions: NCI-H522, 24 h
[13] = tested on: NCI-H23; assay: Cell cycle arrest in human NCI-H23 cells assessed as accumulation at G2/M phase after 24 hrs using propidium iodide staining by FACS analysis; format: functional, cell-based; conditions: NCI-H23, 24 h
[14] = tested on: SW-620; assay: Cell cycle arrest in human SW620 cells assessed as accumulation at G2/M phase after 24 hrs using propidium iodide staining by FACS analysis; format: functional, cell-based; conditions: SW-620, 24 h
[15] = tested on: MCF7; assay: Cell cycle arrest in human MCF7 cells assessed as accumulation at G2/M phase after 24 hrs using propidium iodide staining by FACS analysis; format: functional, cell-based; conditions: MCF7, 24 h

Row | SMILES | bioavailability [1] [%] | IC50 [2] [nM] | IC50 [3] [nM] | IC50 [4] [nM] | IC50 [5] [nM] | IC50 [6] [nM] | inhibition [7] | EC50 [8] [nM] | IC50 [9] [nM] | IC50 [10] [nM] | IC50 [11] [nM] | IC50 [12] [nM] | IC50 [13] [nM] | IC50 [14] [nM] | IC50 [15] [nM]
1 | Oc1cc(Nc2cccnc2)cc(-c2cccc3[nH]ccc23)c1 | 24 |  |  |  |  |  |  |  |  |  |  |  |  |  | 
2 | COc1ccc(S(=O)(=O)Nc2cccnc2Nc2ccc(O)cc2)cc1 [ABT-751] |  | 190 | 170 | 270 | 160 | 290 |  |  |  |  |  |  |  |  | 
3 | CC[C@]1(O)C[C@H]2CN(CCc3c([nH]c4ccccc34)[C@@](C(=O)OC)(c3cc4c(cc3OC)N(C=O)[C@H]3[C@@](O)(C(=O)OC)[C@H](OC(C)=O)[C@]5(CC)C=CCN6CC[C@]43[C@@H]65)C2)C1 [VINCRISTINE] |  |  |  |  |  |  | inactive | 2500 |  |  |  |  |  |  | 
4 | COc1cc2c(c(OC)c1OC)-c1ccc(OC)c(=O)cc1[C@@H](NC(C)=O)CC2 [COLCHICINE] |  |  |  |  | 17 |  | 79% | 2000 | 10 | 33 | 16 | 14 | 13 | 14 | 
5 | CC(=O)Nc1cc(C(=O)c2cc(C)nc(N3CCOCC3)c2)cc(-c2cccc3[nH]ccc23)c1 |  | 450 | 350 | 490 |  | 1100 |  |  | 20 | 50 | 70 |  | 40 |  | 10
6 | COC(=O)Nc1cc(C(=O)c2ccnc(N3CCOCC3)c2)cc(-c2cccc3[nH]ccc23)c1 |  | 250 | 220 | 280 |  | 300 |  | 4600 | 120 | 20 | 10 |  | 30 |  | 30
7 | CC(=O)O[C@H]1C(=O)[C@@]2(C)[C@H]([C@H](OC(=O)c3ccccc3)[C@]3(O)C[C@H](OC(=O)[C@H](O)[C@@H](NC(=O)c4ccccc4)c4ccccc4)C(C)=C1C3(C)C)[C@]1(OC(C)=O)CO[C@@H]1C[C@@H]2O [PACLITAXEL] |  | 30 | 10 | 20 |  | 13000 |  |  |  |  |  |  |  |  | 
